Two molecules from patent US20060134197A1, “Method of reducing unpleasant taste and/or unpleasant odor” (priority 2002, published 2006) can be followed below.

Experiment [1] in a line: Panel test of lowering iron taste and/or smell of aqueous bivalent iron ion solution. As to conditions: for Effect on lowering iron taste and/or smell: 5 mg bivalent iron per 100 ml, 12 panels; for Concentration effective on lowering unpleasant taste and/or smell of aqueous iron ion solution: to the total weight of the aqueous solution, dry solid basis. Set-up: key to Effect on lowering iron taste and/or smell: “Not effective (symbol “−”)” meaning of that the test aqueous solution showed no difference in iron taste and/or smell from that the control aqueous solution; “Slightly effective (symbol “+”)”, the test aqueous solution showes weaker iron taste and/or smell than the control aqueous solution but the deference was not significant; “Effective (symbol “++”)”, the test aqueous solution showed a slight iron taste and/or smell but it was significantly weaker than that of the control aqueous solution; “Strongly effective (symbol “+++”)”, the test aqueous solution showed almost no iron taste and/or smell. The protocol:
To confirm the effect of various saccharides on inhibiting taste and/or smell of bivalent iron ion, the following experiment was carried out. An aqueous solution containing bivalent iron ion was prepared by dissolving 0.05556 part by weight of ammonium ferric citrate (iron content of about 18%), and 0.1 part by weight of ascorbic acid in 100 parts by weight of deionized water. Test aqueous solutions containing 5 mg of bivalent iron per 100 ml of water and 0.5, 1.0, 1.5, 2.0 or 5.0% of saccharide selected from sucrose, maltose (hydrous crystalline maltose commercialized by Hayashibara Biochemical Laboratories, Inc., Okayama, Japan, purify 99.0% or more), α,α-trehalose (hydrous crystalline α,α-trehalose commercialized by Hayashibara Biochemical Laboratories, Inc., Okayama, Japan, purity 99.0% or more), α-glucosyl α,α-trehalose (hydrous crystalline α-glucosyl α,α-trehalose prepared in Experiment B-1 of Japanese Patent Publication (Kokai) No. 291,986/1995, purity 99.0% or more), and […] (powdery α-maltosyl α,α-trehalose prepared in Example 5 described following, purity 98.1%) were prepared by admixing the above aqueous solution containing bivalent iron with an equal volume of a pre-prepared aqueous solution containing any one of the above saccharides at a concentration of 1.0, 2.0, 3.0, 4.0 or 10.0%, on a dry solid basis. As a control, an aqueous solution was prepared by admixing the aqueous solution containing bivalent iron ion with an equal volume of warter instead of the aqueous saccharide solution.
The effect on lowering iron taste and/or smell, namely unpleasant taste and/or smell of iron ion existing in a test aqueous solution at a concentration of 5 mg per 100 ml was judged by a panel test using 12 panels. […] In the judgement for each test aqueous solution, ten or more of 12 panels answered the same judgement.

Experiment [2] is described as follows: Inhibiting the production of hydrogen sulfide from chicken egg due to heat-decomposition. As to conditions: 10 g egg solution and 5 g saccharide in 50 ml, pH 7.0; 80° C. for 60 minutes; 100 minus relative value, control defined as 100. The source says: Ten grams of an egg solution prepared by mixing a commercialized chicken egg with an equal weight of deionized water, and on a dry solid basis 5 g of a precisely measured saccharide sample; i.e. hydrous crystalline α,α-trehalose (food grade, purity 97.0% or more, commercialized by Hayashibara Biochemical Laboratories, Inc., Okayama, Japan), sucrose (a commercialized granulated sugar), a syrup containing saccharide derivatives of α,α-trehalose prepared in the following Example 1, or a syrup containing saccharide derivatives of α,α-trehalose prepared in the following Example 6 (hereinafter, it is called as “hydrogenated syrup containing saccharide derivatives containing α,α-trehalose”); were placed in a 50-ml volume measuring flask, and admixed with 5 ml of 500 mM phosphate buffer (pH 7.0) and deionized water to give a final volume of 50 ml. As a control, 10 g of an egg solution was admixed with deionized water to give a final volume of 50 ml. Five milliliters of each of the samples was placed into a 20-ml volume vial, sealed with a butyl gum cap, and kept at 80° C. for 60 minutes in an incubator. Hydrogen sulfide contained in 10 ml of the resulting headspace gas was measured by “[…] […] And then, the relative rate of inhibiting the production of hydrogen sulfide was calculated by 100 minus the relative value.

The nature of experiment [3]: Inhibiting the production of amines from heated minced mackerel (headspace GC). As to conditions: minced mackerel with 5% saccharide solution; for Relative rate of inhibiting the production of dimethylamine / Relative rate of inhibiting the production of trimethylamine: headspace gas; for Relative rate of inhibiting the production of total amine: trimethylamine plus dimethylamine. On the procedure:
(§1) Five grams of minced mackerel, prepared by mincing commercialized mackerel without head part, internal organs and bone with a mincer to homogeneity, was placed in a 20-ml vial, and admixed with 5 ml of an aqueous solution containing on a dry solid basis 5% of “TREHA®”, a food grade hydrous α,α-trehalose commercialized by Hayashibara Biochemical laboratories, Inc., Okayama, Japan (purity 99.0% or more), sucrose (a commercialized granulated sugar), or a syrupy saccharide mixture containing saccharide derivatives of α,α-trehalose prepared in Example 1. The resulting vials were sealed with a butyl gum cap to prepare test samples. As a control, a vial containing 5 g of the minced mackerel and 5 ml of deionized water was sealed with a butyl gum cap for a control sample. These samples were heated in boiled water for 15 minutes, cooled in running water, and heated at 80° C. for five minutes. The resulting headspace gas was taken from each of the vials and allowed to measure the contents of amines, hydrogen sulfide and aldehydes.
Measurement of the content of amines was carried out by subjecting 2 ml of the headspace gas to analysis by GC-14B gas chromatography, a hydrogen flame ionizing detector commercialized by Shimazu Co., Ltd., Kyoto, Japan, with flowing helium gas as a carrier gas at a flow rate of 1 ml/minute, and using DB-5 capillary column, 30 m in length and 0.25 mm in internal diameter (df=0.25 μm, sprit rate 1/30), commercialized by J & W Company, with an increasing column temperature from 40° C. to 250° C. at a rate of 5° C./minute. The amount of total amine was calculated by totalizing the amount of trimethylamine and dimethylamine.
(§2) The values of the production of amines, hydrogen sulfide and aldehydes of each test sample were compared with the value of control defined as 100 to calculate the relative values thereof. And then, the relative rates of inhibiting the production of amines, hydrogen sulfide and aldehydes were respectively calculated by 100 minus each of the relative values.

A short description of experiment [4]: Inhibiting the production of aldehydes from heated minced mackerel (headspace GC). To be noted: minced mackerel with 5% saccharide solution; for Relative rate of inhibiting the production of acetaldehyde / Relative rate of inhibiting the production of butanal / Relative rate of inhibiting the production of decanal / Relative rate of inhibiting the production of heptanal / Relative rate of inhibiting the production of hexanal / Relative rate of inhibiting the production of nonanal / Relative rate of inhibiting the production of octanal / Relative rate of inhibiting the production of pentanal / Relative rate of inhibiting the production of propanal: headspace gas; for Relative rate of inhibiting the production of total aldehydes: sum of nine aldehydes. On the procedure: as §1
Measurement of the content of aldehydes was carried out by subjecting 2 ml of the headspace gas to analysis by GC-14B gas chromatography, a hydrogen flame ionizing detector commercialized by Shimazu co., Ltd., Kyoto, Japan, with flowing helium gas as a carrier gas in 1 ml/minute, and using TC-FFAP capillary column, 30min length and 0.52 mm in internal diameter (df=1 μm, sprit rate 1/30), commercialized by GL Science Company, with an increasing column temperature from 40° C. to 250° C. at a rate of 5° C./minute.
as §2

A value given as a limit tells only on which side of the number the result lay.

With `OC[C@H]1O[C@H](O[C@H]2O[C@H](CO)[C@@H](O)[C@H](O)[C@H]2O)[C@H](O)[C@@H](O)[C@@H]1O` [α,α-Trehalose, α,α-trehalose], the “Effect on lowering iron taste and/or smell” value in experiment [1] (saccharide 0.5%) is on record as “−”. For the same molecule, the “Effect on lowering iron taste and/or smell” value in experiment [1] (saccharide 1.0%) is recorded as “−”. In addition, the “Effect on lowering iron taste and/or smell” value in experiment [1] (saccharide 1.5%) was “+”. For the same molecule, the “Effect on lowering iron taste and/or smell” value in experiment [1] (saccharide 2.0%) is “+”. In addition, the “Effect on lowering iron taste and/or smell” value in experiment [1] (saccharide 5.0%) is listed as “++”. For the same molecule, the “Concentration effective on lowering unpleasant taste and/or smell of aqueous iron ion solution” value in experiment [1] was at least 1.5%. The “Relative rate of inhibiting the production of hydrogen sulfide” value in experiment [2] came to 30. In experiment [3], the “Relative rate of inhibiting the production of dimethylamine” value is recorded as 44, the “Relative rate of inhibiting the production of trimethylamine” value is given as 58 and the “Relative rate of inhibiting the production of total amine” value turned out to be 52. Also, in experiment [4], the “Relative rate of inhibiting the production of acetaldehyde” value is 73, the “Relative rate of inhibiting the production of butanal” value is on record as 100, the “Relative rate of inhibiting the production of decanal” value is reported as 76 and the “Relative rate of inhibiting the production of heptanal” value turned out to be 88. Also, in experiment [4], the “Relative rate of inhibiting the production of hexanal” value worked out at 93, the “Relative rate of inhibiting the production of nonanal” value is 100, the “Relative rate of inhibiting the production of octanal” value came to 100 and the “Relative rate of inhibiting the production of pentanal” value is 83. In experiment [4], the “Relative rate of inhibiting the production of propanal” value was determined as 98 and the “Relative rate of inhibiting the production of total aldehydes” value is on record as 80.
For the molecule `OC[C@H]1O[C@@](CO)(O[C@H]2O[C@H](CO)[C@@H](O)[C@H](O)[C@H]2O)[C@@H](O)[C@@H]1O` [Sucrose, sucrose], the “Effect on lowering iron taste and/or smell” value in experiment [1] (saccharide 0.5%) is listed as “−”. In addition, the “Effect on lowering iron taste and/or smell” value in experiment [1] (saccharide 1.0%) is “−”. Moreover, the “Effect on lowering iron taste and/or smell” value in experiment [1] (saccharide 1.5%) was “−”. Also, the “Effect on lowering iron taste and/or smell” value in experiment [1] (saccharide 2.0%) is “−”. For the same molecule, the “Effect on lowering iron taste and/or smell” value in experiment [1] (saccharide 5.0%) was “−”. Further, the “Concentration effective on lowering unpleasant taste and/or smell of aqueous iron ion solution” value in experiment [1] is “not effective”. In addition, in experiment [2], the “Relative rate of inhibiting the production of hydrogen sulfide” value is 14. Besides, in experiment [3], the “Relative rate of inhibiting the production of dimethylamine” value is given as −34, the “Relative rate of inhibiting the production of trimethylamine” value was 12 and the “Relative rate of inhibiting the production of total amine” value is reported as −8. For the same molecule, in experiment [4], the “Relative rate of inhibiting the production of acetaldehyde” value was 13, the “Relative rate of inhibiting the production of butanal” value is −13, the “Relative rate of inhibiting the production of decanal” value was found to be 57 and the “Relative rate of inhibiting the production of heptanal” value worked out at 54. In experiment [4], the “Relative rate of inhibiting the production of hexanal” value amounted to 33, the “Relative rate of inhibiting the production of nonanal” value is given as −54, the “Relative rate of inhibiting the production of octanal” value came to 43 and the “Relative rate of inhibiting the production of pentanal” value is listed as −15. In addition, in experiment [4], the “Relative rate of inhibiting the production of propanal” value worked out at 32 and the “Relative rate of inhibiting the production of total aldehydes” value was determined as 20.
